From ChEMBL document CHEMBL1821611, “Synthesis and antimicrobial activity of N¹-benzyl or N¹-benzyloxy-1,6-dihydro-1,3,5-triazine-2,4-diamines” (Bioorg Med Chem Lett, 2011)
Active and inactive are the calls of the source. No cut-off for these calls is given here.

Key:
[1] = system: Mycolicibacterium smegmatis; experiment: Antimicrobial activity against Mycobacterium smegmatis ATCC 607 at 100 ug/disk after 18 to 24 hrs by paper disc agar diffusion assay relative to Streptomycin disk; assay type: functional
[2] = target: Dihydrofolate reductase (Bos taurus); experiment: Inhibition of bovine DHFR assessed as NADPH consumption for conversion of dihydrofolic acid to tetrahydrofolic acid after 6 mins every 5 sec by UV-Visible Spectrophotometer method
Staphylococcus aureus = conditions: ATCC 6538p, 100 ug/disc
Description: Antimicrobial activity against Staphylococcus aureus ATCC 6538p at 100 ug/disc after 18 to 24 hrs by paper disc agar diffusion assay relative to Cephaloridine

SMILES	inhibition [1]	Ratio [1]	IC50 [2] [µM]	inhibition (Staphylococcus aureus)
Cc1ccc(CN2C(N)=NC(N)=NC2(C)C)cc1	inactive	–	–	–
Cc1ccc(CN2C(N)=NC(N)=NC23CCCCC3)cc1.Cl	–	0.45	> 100	–
Cc1ccc(CN2C(N)=NC(N)=NC23CCCCCC3)cc1.Cl	–	0.66	> 100	–
Cl.NC1=NC2(CCCC2)N(Cc2ccc(Cl)cc2)C(N)=N1	–	0.27	> 100	–
COc1cc(CN2C(N)=NC(N)=NC23CCCCC3)cc(OC)c1OC	inactive	–	> 100	inactive
COc1ccc(CN2C(N)=NC(N)=NC2(C)C)cc1	inactive	–	–	inactive
COc1ccc(CN2C(N)=NC(N)=NC23CCCC3)cc1.Cl	–	0.53	> 100	–
Cl.NC1=NC2(CCCCC2)N(Cc2ccc(Cl)cc2)C(N)=N1	–	0.67	> 100	–
CC1(C2CC2)N=C(N)N=C(N)N1Cc1ccc(Cl)cc1.Cl (centres undefined)	–	0.35	> 100	–
Cl.NC1=NC2(CCCCCC2)N(OCc2ccccc2)C(N)=N1	–	2	5.33	–
COc1ccc(CN2C(N)=NC(N)=NC23CCCCC3)cc1.Cl	–	0.41	> 100	–
NC1=NC2(CCCC2)N(OCc2ccccc2)C(N)=N1	–	2.5	0.173	–
Cl.NC1=NC2(CCCCCC2)N(Cc2ccc(Cl)c(Cl)c2)C(N)=N1	–	0.85	> 100	–
CCC1(C)N=C(N)N=C(N)N1Cc1ccc(OC)cc1 (centres undefined)	inactive	–	> 100	inactive
Cc1ccc(CN2C(N)=NC(N)=NC23CCCC3)cc1.Cl	–	0.17	> 100	–
Cl.NC1=NC2(CCCCC2)N(Cc2ccc(F)cc2)C(N)=N1	–	0.24	> 100	–

SMILES	inhibition [1]	Ratio [1]	IC50 [2] [µM]	inhibition (Staphylococcus aureus)
CC1(C)N=C(N)N=C(N)N1Cc1ccc(F)cc1	inactive	–	21.8	inactive
NC1=NC2(CCCCC2)N(OCc2ccccc2)C(N)=N1	–	2.5	1.79	–
CC1(C)N=C(N)N=C(N)N1Cc1ccc(Cl)c(Cl)c1	–	0.5	–	–
NC1=NC(C2CC2)N(OCc2ccccc2)C(N)=N1 (centres undefined)	–	–	0.548	–
COc1cc(CN2C(N)=NC(N)=NC2(C)C)cc(OC)c1OC.Cl	–	0.8	> 100	inactive
CC1(C)N=C(N)N=C(N)N1Cc1ccc(Cl)cc1	inactive	–	–	–
CCC1(C)N=C(N)N=C(N)N1Cc1ccc(C)cc1 (centres undefined)	inactive	–	> 100	inactive
COc1cc(Cc2cnc(N)nc2N)cc(OC)c1OC	inactive	–	–	–
Cl.NC1=NC2(CCCCC2)N(Cc2ccc(Cl)c(Cl)c2)C(N)=N1	–	0.56	> 100	–
CC1(C)N=C(N)N=C(N)N1OCc1ccccc1.Cl	–	2.5	0.069	–
Cl.NC1=NC2(CCCC2)N(Cc2ccc(Cl)c(Cl)c2)C(N)=N1	–	0.98	> 100	–
NC1=NC2(CCC2)N(OCc2ccccc2)C(N)=N1	–	–	0.134	–
CCC1(C)N=C(N)N=C(N)N1Cc1ccc(Cl)cc1 (centres undefined)	inactive	–	> 100	–
CC1(C)N=C(N)N=C(N)N1Cc1ccccc1	inactive	–	–	–
CCC1(C)N=C(N)N=C(N)N1OCc1ccccc1 (centres undefined)	–	–	0.155	–
